Data from ChEMBL document CHEMBL5696443 (Clin Cancer Res, 2016).
Calls of active or inactive are those of the source. The calls are words filed in the database; no cut-off is given here.

Columns and labels:
[1] = target: Tyrosine-protein kinase Fer (Homo sapiens, UniProt P16591); test: Inhibition of human FER using poly (Glu, Tyr)4:1 as substrate in presence of [gamma33P]-ATP by HotSpot assay
[2] = target: Serine/threonine-protein kinase Chk2 (Homo sapiens, UniProt O96017, I157T); test: Inhibition of human CHEK2 I157T mutant using KKKVSRSGLYRSPSMPENLNRPR as substrate in presence of [gamma33P]-ATP by HotSpot assay
[3] = target: Tyrosine-protein kinase Fyn (Homo sapiens, UniProt P06241); test: Inhibition of human FYN using poly (Glu, Tyr)4:1 as substrate in presence of [gamma33P]-ATP by HotSpot assay
[4] = target: Tyrosine-protein kinase BTK (Homo sapiens, UniProt Q06187); test: Inhibition of human BTK using poly (Glu, Tyr)4:1 as substrate in presence of [gamma33P]-ATP by HotSpot assay
[5] = target: Maternal embryonic leucine zipper kinase (Homo sapiens, UniProt Q14680); test: Inhibition of human MELK using KKLNRTLSFAEPG as substrate in presence of [gamma33P]-ATP by HotSpot assay
[6] = target: Beta-adrenergic receptor kinase 1 (Homo sapiens) (UniProt P25098); test: Inhibition of human ADRBK1 at 1 uM using casein as substrate in presence of [gamma33P]-ATP by HotSpot assay relative to control
[7] = target: Casein kinase II subunit alpha' (Homo sapiens) (UniProt P19784); test: Inhibition of human CK2a2 at 1 uM using RRRDDDSDDD as substrate in presence of [gamma33P]-ATP by HotSpot assay relative to control
[8] = target: Casein kinase I isoform gamma-2 (Homo sapiens) (UniProt P78368); test: Inhibition of human CSNK1G2 at 1 uM using KRRRAL[pS]VASLPGL as substrate in presence of [gamma33P]-ATP by HotSpot assay relative to control
[9] = target: Myotonin-protein kinase (Homo sapiens) (UniProt Q09013); test: Inhibition of human DMPK at 1 uM using KKRNRRLSVA as substrate in presence of [gamma33P]-ATP by HotSpot assay relative to control
[10] = target: G protein-coupled receptor kinase 5 (Homo sapiens) (UniProt P34947); test: Inhibition of human GRK5 at 1 uM using casein as substrate in presence of [gamma33P]-ATP by HotSpot assay relative to control
[11] = target: Tyrosine-protein kinase ITK/TSK (Homo sapiens) (UniProt Q08881); test: Inhibition of human ITK at 1 uM using MBP as substrate in presence of [gamma33P]-ATP by HotSpot assay relative to control
[12] = target: Mitogen-activated protein kinase 3 (Homo sapiens) (UniProt P27361); test: Inhibition of human MAPK3 at 1 uM using MBP as substrate in presence of [gamma33P]-ATP by HotSpot assay relative to control
[13] = target: MAP kinase-activated protein kinase 2 (Homo sapiens) (UniProt P49137); test: Inhibition of human MAPKAPK2 at 1 uM using KKLNRTLSVA as substrate in presence of [gamma33P]-ATP by HotSpot assay relative to control
[14] = target: Serine/threonine-protein kinase mTOR (Homo sapiens) (UniProt P42345); test: Inhibition of human MTOR at 1 uM using 4EBP1 as substrate in presence of [gamma33P]-ATP by HotSpot assay relative to control
[15] = target: Serine/threonine-protein kinase Nek3 (Homo sapiens) (UniProt P51956); test: Inhibition of human NEK3 at 1 uM using MBP as substrate in presence of [gamma33P]-ATP by HotSpot assay relative to control
[16] = target: Serine/threonine-protein kinase NLK (Homo sapiens) (UniProt Q9UBE8); test: Inhibition of human NLK at 1 uM using MBP as substrate in presence of [gamma33P]-ATP by HotSpot assay relative to control
[17] = target: Ribosomal protein S6 kinase beta-1 (Homo sapiens) (UniProt P23443); test: Inhibition of human P70S6K at 1 uM using KKRNRTLTK as substrate in presence of [gamma33P]-ATP by HotSpot assay relative to control
[18] = target: Serine/threonine-protein kinase PAK 1 (Homo sapiens) (UniProt Q13153); test: Inhibition of human PAK1 at 1 uM using RRRLSFAEPG as substrate in presence of [gamma33P]-ATP by HotSpot assay relative to control
[19] = target: Protein kinase C theta type (Homo sapiens) (UniProt Q04759); test: Inhibition of human PKCtheta at 1 uM using ERMRPRKRQGSVRRRV as substrate in presence of [gamma33P]-ATP by HotSpot assay relative to control
[20] = target: cAMP-dependent protein kinase catalytic subunit PRKX (Homo sapiens) (UniProt P51817); test: Inhibition of human PRKX at 1 uM using LRRASLG as substrate in presence of [gamma33P]-ATP by HotSpot assay relative to control
[21] = target: Serine/threonine-protein kinase Sgk3 (Homo sapiens) (UniProt Q96BR1); test: Inhibition of human SGK3 at 1 uM using GRPRTSSFAEG as substrate in presence of [gamma33P]-ATP by HotSpot assay relative to control
[22] = target: Serine/threonine-protein kinase 24 (Homo sapiens) (UniProt Q9Y6E0); test: Inhibition of human STK24 at 1 uM using MBP as substrate in presence of [gamma33P]-ATP by HotSpot assay relative to control
Mus musculus = test: In vivo inhibition of ALK signaling in SCID Beige mouse xenografted with ALK positive human KARPAS-299 cells assessed as reduction in phosphorylated ALK level at 10 to 50 mg/kg, po administered as single dose and measured at 6 to 24 hrs by immunoblot analysis; format: functional, organism-based; conditions: dose 10-50 mg/kg, time 6-24 hrs
BaF3 [23] = test: Antitumor activity against mouse BaF3 cells expressing native EML4-ALK implanted in mouse assessed as tumor regression at 50 mg/kg, po administered once daily and measured after 8 days relative to control; format: functional; conditions: time 8 day
BaF3 [24] = test: In vivo inhibition of ALK signaling in mouse implanted with mouse BaF3 cells expressing EML4-ALK G1202R mutant assessed as inhibition of ALK phosphorylation at 25 mg/kg, po administered as single dose and measured at 6 to 24 hrs by ELISA; format: functional, organism-based; conditions: time 6-24 hrs
NCI-H23 = conditions: time 72 hrs
U-937 = conditions: time 72 hrs
[25] = tested on: Epidermal growth factor receptor (Homo sapiens), P00533 [L858R]; conditions: BaF3, time 72.0 hrs
[26] = tested on: EML4-ALK (Homo sapiens), Q9UM73+Q9HC35 [S1206Y]; conditions: BaF3, dose 500.0 nmol/L, time 3-5 weeks

MAP kinase-activated protein kinase 2 (Homo sapiens), sequence (P49137 whole entry, looked up): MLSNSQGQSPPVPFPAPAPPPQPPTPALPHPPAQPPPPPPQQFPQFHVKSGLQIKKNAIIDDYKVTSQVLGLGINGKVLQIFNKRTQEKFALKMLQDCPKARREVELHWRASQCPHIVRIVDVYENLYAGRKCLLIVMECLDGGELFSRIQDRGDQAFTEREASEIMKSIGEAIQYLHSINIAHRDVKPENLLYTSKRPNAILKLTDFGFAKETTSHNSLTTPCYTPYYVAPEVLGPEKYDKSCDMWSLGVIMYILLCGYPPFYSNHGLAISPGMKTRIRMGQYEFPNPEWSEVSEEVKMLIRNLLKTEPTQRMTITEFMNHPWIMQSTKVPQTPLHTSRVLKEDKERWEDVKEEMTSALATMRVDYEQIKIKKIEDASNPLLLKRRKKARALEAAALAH
Tyrosine-protein kinase BTK, sequence (Q06187 whole entry): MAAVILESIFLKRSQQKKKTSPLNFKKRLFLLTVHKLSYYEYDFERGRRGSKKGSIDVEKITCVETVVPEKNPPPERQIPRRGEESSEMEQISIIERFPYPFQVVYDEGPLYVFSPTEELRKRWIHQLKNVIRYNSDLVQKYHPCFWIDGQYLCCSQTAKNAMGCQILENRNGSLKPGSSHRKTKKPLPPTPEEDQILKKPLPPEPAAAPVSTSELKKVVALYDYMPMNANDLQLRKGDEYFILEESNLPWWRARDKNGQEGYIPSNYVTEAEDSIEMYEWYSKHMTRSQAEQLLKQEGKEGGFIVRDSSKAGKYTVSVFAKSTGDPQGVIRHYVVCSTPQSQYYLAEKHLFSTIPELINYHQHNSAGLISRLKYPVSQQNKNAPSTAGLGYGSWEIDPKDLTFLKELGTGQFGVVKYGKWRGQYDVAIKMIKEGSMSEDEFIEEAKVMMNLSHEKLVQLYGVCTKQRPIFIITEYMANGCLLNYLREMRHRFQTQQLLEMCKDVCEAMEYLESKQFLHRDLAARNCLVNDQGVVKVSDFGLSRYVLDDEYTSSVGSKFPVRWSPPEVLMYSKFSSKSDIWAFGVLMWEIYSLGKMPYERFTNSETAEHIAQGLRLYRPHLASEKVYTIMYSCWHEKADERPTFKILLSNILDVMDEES
Tyrosine-protein kinase ITK/TSK (Homo sapiens), sequence (Q08881 whole entry): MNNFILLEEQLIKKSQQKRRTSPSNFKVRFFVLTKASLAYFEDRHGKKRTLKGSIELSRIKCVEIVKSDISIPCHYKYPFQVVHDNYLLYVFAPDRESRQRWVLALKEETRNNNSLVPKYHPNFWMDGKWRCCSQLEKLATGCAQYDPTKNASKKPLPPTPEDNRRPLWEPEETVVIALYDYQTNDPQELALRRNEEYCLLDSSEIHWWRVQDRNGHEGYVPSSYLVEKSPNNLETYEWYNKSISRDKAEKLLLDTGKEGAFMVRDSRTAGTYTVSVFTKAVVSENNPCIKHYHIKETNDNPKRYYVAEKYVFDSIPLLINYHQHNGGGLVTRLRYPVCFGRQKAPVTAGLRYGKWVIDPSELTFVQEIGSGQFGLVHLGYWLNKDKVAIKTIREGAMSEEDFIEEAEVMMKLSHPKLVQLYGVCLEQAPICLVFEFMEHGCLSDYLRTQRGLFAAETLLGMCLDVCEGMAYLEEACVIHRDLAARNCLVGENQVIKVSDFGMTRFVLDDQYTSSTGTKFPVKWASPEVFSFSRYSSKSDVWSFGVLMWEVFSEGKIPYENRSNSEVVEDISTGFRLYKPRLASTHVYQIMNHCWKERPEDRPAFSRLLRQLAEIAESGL
Ribosomal protein S6 kinase beta-1 (Homo sapiens), sequence (P23443 whole entry, looked up): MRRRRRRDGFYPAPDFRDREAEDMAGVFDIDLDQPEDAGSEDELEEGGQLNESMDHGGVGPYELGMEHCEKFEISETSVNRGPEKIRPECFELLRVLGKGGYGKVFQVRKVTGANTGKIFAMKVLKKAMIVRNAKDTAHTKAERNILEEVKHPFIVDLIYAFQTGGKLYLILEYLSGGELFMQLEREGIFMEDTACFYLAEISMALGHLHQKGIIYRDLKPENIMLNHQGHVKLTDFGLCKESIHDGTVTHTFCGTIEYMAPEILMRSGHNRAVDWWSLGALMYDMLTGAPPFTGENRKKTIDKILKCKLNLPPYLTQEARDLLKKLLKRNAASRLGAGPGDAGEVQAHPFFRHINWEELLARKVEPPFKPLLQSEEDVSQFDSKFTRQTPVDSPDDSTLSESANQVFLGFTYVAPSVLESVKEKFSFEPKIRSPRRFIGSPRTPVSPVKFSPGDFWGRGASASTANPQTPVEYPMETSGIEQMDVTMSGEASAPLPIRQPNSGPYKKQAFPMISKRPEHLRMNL
Casein kinase I isoform gamma-2 (Homo sapiens), sequence (P78368 whole entry, looked up, canonical isoform): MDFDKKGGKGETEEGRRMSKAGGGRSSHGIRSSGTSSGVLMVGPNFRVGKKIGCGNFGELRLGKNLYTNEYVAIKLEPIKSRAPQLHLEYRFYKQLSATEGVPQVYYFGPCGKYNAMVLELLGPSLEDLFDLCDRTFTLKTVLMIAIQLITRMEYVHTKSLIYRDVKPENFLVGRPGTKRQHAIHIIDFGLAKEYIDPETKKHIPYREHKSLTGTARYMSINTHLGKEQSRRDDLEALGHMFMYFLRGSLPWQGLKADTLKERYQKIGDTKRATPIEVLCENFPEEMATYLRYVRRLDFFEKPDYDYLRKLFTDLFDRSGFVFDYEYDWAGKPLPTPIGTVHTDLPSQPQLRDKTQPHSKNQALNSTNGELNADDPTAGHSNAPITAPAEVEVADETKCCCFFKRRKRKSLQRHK
Serine/threonine-protein kinase Chk2, sequence (O96017 whole entry I157T): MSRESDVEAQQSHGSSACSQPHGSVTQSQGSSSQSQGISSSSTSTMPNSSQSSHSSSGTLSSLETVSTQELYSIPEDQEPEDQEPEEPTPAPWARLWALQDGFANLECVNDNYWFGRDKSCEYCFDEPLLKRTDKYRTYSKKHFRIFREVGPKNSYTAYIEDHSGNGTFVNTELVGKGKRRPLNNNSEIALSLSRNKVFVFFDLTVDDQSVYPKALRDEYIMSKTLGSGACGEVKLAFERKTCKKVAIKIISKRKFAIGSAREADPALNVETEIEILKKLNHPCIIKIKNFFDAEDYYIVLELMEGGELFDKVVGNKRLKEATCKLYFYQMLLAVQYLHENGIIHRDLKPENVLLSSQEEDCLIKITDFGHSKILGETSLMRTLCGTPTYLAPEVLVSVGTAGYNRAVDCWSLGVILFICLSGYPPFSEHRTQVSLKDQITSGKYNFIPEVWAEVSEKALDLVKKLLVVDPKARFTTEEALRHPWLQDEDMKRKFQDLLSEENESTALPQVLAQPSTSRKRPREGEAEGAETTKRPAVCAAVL
Serine/threonine-protein kinase NLK (Homo sapiens), sequence (Q9UBE8 whole entry): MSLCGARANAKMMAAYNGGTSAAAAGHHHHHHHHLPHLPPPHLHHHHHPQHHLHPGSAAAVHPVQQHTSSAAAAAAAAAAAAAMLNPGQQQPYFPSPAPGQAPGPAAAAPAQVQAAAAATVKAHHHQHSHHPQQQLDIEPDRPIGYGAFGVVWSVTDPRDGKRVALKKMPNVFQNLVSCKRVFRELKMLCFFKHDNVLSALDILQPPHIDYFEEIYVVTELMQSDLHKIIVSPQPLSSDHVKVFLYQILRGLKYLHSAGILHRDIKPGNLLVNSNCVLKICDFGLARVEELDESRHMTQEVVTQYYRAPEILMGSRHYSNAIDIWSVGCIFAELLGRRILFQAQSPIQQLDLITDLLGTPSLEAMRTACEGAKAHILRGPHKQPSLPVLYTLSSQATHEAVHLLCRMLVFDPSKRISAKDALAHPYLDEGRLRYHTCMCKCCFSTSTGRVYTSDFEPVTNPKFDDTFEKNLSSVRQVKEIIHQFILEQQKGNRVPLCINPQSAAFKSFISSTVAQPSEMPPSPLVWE
cAMP-dependent protein kinase catalytic subunit PRKX (Homo sapiens), sequence (P51817 whole entry): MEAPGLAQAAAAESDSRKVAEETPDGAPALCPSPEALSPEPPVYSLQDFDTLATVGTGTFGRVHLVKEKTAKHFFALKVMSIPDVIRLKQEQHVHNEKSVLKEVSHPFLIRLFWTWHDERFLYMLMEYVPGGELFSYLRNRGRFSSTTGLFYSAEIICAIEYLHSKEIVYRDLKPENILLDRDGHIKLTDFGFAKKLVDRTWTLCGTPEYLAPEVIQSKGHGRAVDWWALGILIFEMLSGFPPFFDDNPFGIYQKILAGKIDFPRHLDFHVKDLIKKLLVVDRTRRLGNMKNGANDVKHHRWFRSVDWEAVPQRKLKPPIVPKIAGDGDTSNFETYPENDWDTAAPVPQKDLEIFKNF
Serine/threonine-protein kinase Nek3 (Homo sapiens), sequence (P51956 whole entry): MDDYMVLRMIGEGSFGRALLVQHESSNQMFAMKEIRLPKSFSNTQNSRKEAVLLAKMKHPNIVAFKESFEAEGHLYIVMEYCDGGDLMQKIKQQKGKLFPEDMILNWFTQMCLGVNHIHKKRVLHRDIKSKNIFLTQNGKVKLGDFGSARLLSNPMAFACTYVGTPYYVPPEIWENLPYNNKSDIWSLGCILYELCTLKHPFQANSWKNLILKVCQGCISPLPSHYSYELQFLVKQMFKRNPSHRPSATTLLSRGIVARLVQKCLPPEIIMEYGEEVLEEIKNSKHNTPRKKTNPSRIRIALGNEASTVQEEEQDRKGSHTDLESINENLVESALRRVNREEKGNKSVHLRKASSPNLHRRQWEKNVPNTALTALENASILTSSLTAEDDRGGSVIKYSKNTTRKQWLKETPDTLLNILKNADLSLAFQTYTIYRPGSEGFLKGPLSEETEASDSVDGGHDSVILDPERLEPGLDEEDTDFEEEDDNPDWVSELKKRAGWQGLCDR
Mitogen-activated protein kinase 3 (Homo sapiens), sequence (P27361 whole entry): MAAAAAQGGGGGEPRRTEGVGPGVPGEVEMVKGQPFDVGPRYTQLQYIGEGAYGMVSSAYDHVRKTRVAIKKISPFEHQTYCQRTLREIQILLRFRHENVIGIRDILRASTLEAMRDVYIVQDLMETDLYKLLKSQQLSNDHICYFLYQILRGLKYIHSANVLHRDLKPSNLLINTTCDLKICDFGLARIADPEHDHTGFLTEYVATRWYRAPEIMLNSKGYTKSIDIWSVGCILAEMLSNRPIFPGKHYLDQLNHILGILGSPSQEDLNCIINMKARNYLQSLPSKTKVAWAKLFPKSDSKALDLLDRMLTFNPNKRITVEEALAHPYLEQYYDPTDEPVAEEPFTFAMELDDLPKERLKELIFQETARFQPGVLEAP

Q: `COc1cc(N2CCC(N3CCN(C)CC3)CC2)ccc1Nc1ncc(Cl)c(Nc2ccccc2P(C)(C)=O)n1` [BRIGATINIB] was tested. Which IC50 [1] did it give?
A: 1.3 nM

Q: And the IC50 [2]?
A: 5.6 nM

Q: And the IC50 [3]?
A: 198 nM

Q: And the IC50 [4]?
A: 674 nM

Q: What about the IC50 [5] of the same compound?
A: 895 nM

Q: What about the inhibition [6] of the same compound?
A: < 90%

Q: And the inhibition [7]?
A: < 90%

Q: And the inhibition [8]?
A: < 90%

Q: And the inhibition [9]?
A: < 90%

Q: And the inhibition [10]?
A: < 90%

Q: And the inhibition [11]?
A: < 90%

Q: And the inhibition [12]?
A: < 90%

Q: What about the inhibition [13] of the same compound?
A: < 90%

Q: What about the inhibition [14] of the same compound?
A: < 90%

Q: What about the inhibition [15] of the same compound?
A: < 90%

Q: And the inhibition [16]?
A: < 90%

Q: What about the inhibition [17] of the same compound?
A: < 90%

Q: What about the inhibition [18] of the same compound?
A: < 90%

Q: And the inhibition [19]?
A: < 90%

Q: What about the inhibition [20] of the same compound?
A: < 90%

Q: And the inhibition [21]?
A: < 90%

Q: What about the inhibition [22] of the same compound?
A: < 90%

Q: What about the Activity (Mus musculus) of the same compound?
A: Active

Q: And the Activity (BaF3 [23])?
A: 89%

Q: What about the inhibition (BaF3 [24]) of the same compound?
A: Active

Q: And the GI50 (NCI-H23)?
A: 1340 nM

Q: What about the GI50 (U-937) of the same compound?
A: 2390 nM

Q: What about the IC90 [25] of the same compound?
A: 1200 nM

Q: What about the inhibition [26] of the same compound?
A: Active
